Patent US7696174B2, “Short bio-active peptides for cellular and immunological modulation” (Helix Biomedix, Inc., priority 2007, dated 2010)
“Also recorded” adds a separate entry of the source. Where two headings read alike, the source gives them in different places.

Key:
Format in all cases: cell-based
[1] = system: PAM 212 murine epidermal keratinocyte; assay: Cell proliferation assay, PAM 212 murine epidermal keratinocytes; conditions: for cell proliferation as a percent of control cell proliferation: control = cells treated with PBS only; for cell proliferation activity (in words): epidermal keratinocytes
Procedure: To examine this question, an overlapping set of peptide fragments of HB-107 was generated using standard solid phase peptide chemistry. These peptides were then assayed for cell proliferation activity at concentrations of 0.22, 2.15, 21.5 and 46.4 μg/mL.
The cell proliferation assays proceeded from the following experimental protocol:
Cell Proliferation Assay Using a Mouse Keratinocyte Cell Line.
OBJECTIVE: To determine the anti-proliferative or cytotoxic potential of a test article when applied to epidermal keratinocytes in culture.
TEST SYSTEM: Either the murine keratinocyte cell line PAM212 or primary Normal Human Epidermal Keratinocytes (NHEK, from Clonetics) are preferred models, although other cells may be used.
Keratinocytes are examined microscopically daily. As the culture becomes 50-75% confluent, the media in the plate is aspirated and 0.25% trypsin/EDTA is added (0.05% trypsin for human cells). When the cells become rounded, the trypsin is neutralized by addition of an equal volume of DMEM or KBM supplemented with approximately 10% bovine serum or by using trypsin neutralizing solution (TNS, from Clonetics). Cells are then centrifuged and the pellet is resuspended in 1 ml of DMEM-1 or KBM. A hemacytometer is used to count the cell suspension and the total number of cells/mL is adjusted to 1.5-2.5×10^4 cells/mL with DMEM-1 or KBM. Cells are then plated in 96-well plates at a concentration of 3.0-5.0×10^3 cells/well by adding 200 μL of the cell suspension to each well. Typically, the central 60 wells are used and the outer wells are filled with DMEM or PBS to minimize evaporation effects.
A stock solution of the test article is prepared using DMEM-1 or KBM, and all other dilutions are henceforth prepared from this solution. Typically, each dilution is filtered through an 0.2-μm filter before application to the cell culture. A 1.0% (w/v or v/v) solution or suspension is prepared, and 10-fold or 3-fold serial dilutions are made in culture medium.
The cells are examined 18-24 hours after plating to ensure cell attachment and division, and then 100 μL of the media is aspirated, leaving behind 100 μL in each well. Then 100 μL of a 2× concentration of each test article dilution is added to the replicate wells. For the negative control, 100 μL of the vehicle media (DMEM-1 or KBM) is added to the control wells. The microplate is then incubated at 37 degrees C. and 5.0% CO2 for 48-72 hours after dosing, and cells are allowed to proliferate undisturbed. Following this 48-72 hour exposure, all media is aspirated and proliferation is assessed by one of the below methods.
Option A: neutral red uptake. After exposure and aspiration of media, 200 μL of neutral red media is immediately added to each well. The microplate is returned to the incubator for an additional three hours. Following this dye uptake period, the microplate is removed from the incubator and gently inverted, and the neutral red media is decanted into a collection pan. The cells are then fixed with fixing solution for approximately one minute. The fixing solution is decanted off, and the microplate is washed gently three times with washing solution. The washing solution is decanted, and 200 μL of lysing solution is added. After at least 15 minutes, the contents of each well are re-pipetted to ensure even color distribution in each well, and an aliquot is read on the spectrophotometer as detailed below.
Option B: MTT conversion assay. After exposure and aspiration of media, 200 μL of MTT assay media is immediately added to each well. […] The microplate is returned to the incubator for an additional three hours. Following this dye uptake period, the microplate is removed from the incubator and gently inverted, and the MTT media is decanted into a collection pan. The cells are then washed gently three times with washing solution. The washing solution is decanted, and 200 μL of lysing solution is added. […]

[2] = system: human epidermal keratinocyte; assay: Keratinocyte cell migration assay (tissue culture scratch test); conditions: for cell migration activity (in words): scratch test
Excerpt: Cell proliferation alone is not sufficient to aid in wound healing. Upon sustaining an injury, cells bordering the wound proliferate; the migration of such newly formed cells to close the injury (or chronic lesion of older, dysfunctional tissue) is of equal importance. To address this issue, HB-107 and peptide fragments thereof were examined using a keratinocyte cell migration assay based on a simple tissue culture scratch test. […] The protocol for this assay is standard and has been described by Shanley et al. (2004, Invest. Ophthalmol. Vis. Sci. 45:1088-1094), the article of which is herein incorporated by reference in its entirety.

[3] = system: IL6 expression in epithelial cells; assay: Repression of IL6 expression in resting epithelial cells; conditions: for % Change in IL6 expression / Change in IL6 versus PBS control: 20 μg/mL peptide
Excerpt: The protocol for this assay is standard and described by Murakami et al. (2004, J. Immunol. 172:[…]), the article of which is incorporated herein by reference in its entirety.

[4] = 24 hr after addition of 20 μg/mL peptide
[5] = 48 hr after addition of 20 μg/mL peptide

Row | Substance | cell proliferation as a percent of control cell proliferation ([1]; 0.22 μg/mL peptide) [%] | cell proliferation as a percent of control cell proliferation ([1]; 2.15 μg/mL peptide) [%] | cell proliferation as a percent of control cell proliferation ([1]; 21.5 μg/mL peptide) [%] | cell proliferation as a percent of control cell proliferation ([1]; 46.4 μg/mL peptide) [%] | cell proliferation activity (in words) [1] | also measured
1 | EKMGRNIRN (listed as Hyalophora cecropia) [HB-1059, fragment of HB-107] | 95 | 128 | 162 | 186 | – | cell proliferation activity (in words) ([1]; listed as SEQ ID NO:2): strongest proliferative activity; also recorded: can induce cell proliferation
2 | GRNIRN (listed as Hyalophora cecropia) [HB-1062, fragment of HB-107] | – | – | – | – | – | percent closure of the scratch compared to initial width ([2]; 6 hr exposure to peptide): 0%; percent closure of the scratch compared to initial width ([2]; 10 hr exposure to peptide): 24%; cell migration activity (in words) [2]: no migratory activity
3 | KEKVFLKIE (listed as Hyalophora cecropia) [HB-1076, fragment of HB-107] | – | – | – | – | – | IL6 reduction / anti-inflammatory activity in resting cells (in words) [3]: decrease the level of IL6 expression to the same degree as the HB-107 parent peptide; amount of IL6, Average [3, 4]: 266.7 pg/mL; amount of IL6, Well 1 [3, 4]: 278.32 pg/mL; amount of IL6, Well 2 [3, 4]: 255.08 pg/mL; % Change in IL6 expression ([3]; 24 hr): −17.60%; Change in IL6 versus PBS control ([3]; 24 hr): −56.8; amount of IL6, Average [3, 5]: 727.59 pg/mL; amount of IL6, Well 1 [3, 5]: 726.73 pg/mL; amount of IL6, Well 2 [3, 5]: 728.45 pg/mL; % Change in IL6 expression ([3]; 48 hr): −25.40%; Change in IL6 versus PBS control ([3]; 48 hr): −247.445; IL6 reduction / anti-inflammatory activity in resting cells (in words) ([3]; listed as SEQ ID NO:8): having anti-inflammatory activity
4 | KIEKMG (listed as Hyalophora cecropia) [HB-1072, fragment of HB-107] | 98 | 107 | 185 | 237 | significant increases in cell proliferation compared to induction by HB-107; also recorded: significant increase in the proliferation of epidermal keratinocytes at low concentrations | cell proliferation activity (in words) ([1]; listed as 6): strongest proliferative activity; cell proliferation activity (in words) ([1]; listed as SEQ ID NO:6): can induce cell proliferation; percent closure of the scratch compared to initial width ([2]; 6 hr exposure to peptide): 55%; percent closure of the scratch compared to initial width ([2]; 10 hr exposure to peptide): 77%; cell migration activity (in words) [2]: just as capable as HB-107 in inducing cell migration; also recorded: capable of increasing the migration of cells in a manner similar to that of the parent HB-107 peptide; cell migration activity (in words) ([2]; listed as SEQ ID NO:6): can induce cell proliferation and migration
5 | KIEKMGRNIRN (listed as Hyalophora cecropia) [HB-1057, fragment of HB-107] | 121 | 118 | 171 | 167 | – | cell proliferation activity (in words) ([1]; listed as 9): strongest proliferative activity; cell proliferation activity (in words) ([1]; listed as SEQ ID NO:9): can induce cell proliferation
6 | KMGRNIRN (listed as Hyalophora cecropia) [HB-1060, fragment of HB-107] | 57 | 52 | 90 | 83 | – | –
7 | LKIEKMGRNIRN (listed as Hyalophora cecropia) [HB-1056, fragment of HB-107] | 48 | 39 | 64 | 97 | – | –
8 | MGRNIRN (listed as Hyalophora cecropia) [HB-1061, fragment of HB-107] | 122 | 156 | 163 | 241 | significant increases in cell proliferation compared to induction by HB-107; also recorded: significant increase in the proliferation of epidermal keratinocytes at low concentrations | cell proliferation activity (in words) ([1]; listed as 3): strongest proliferative activity; cell proliferation activity (in words) ([1]; listed as SEQ ID NO:3): can induce cell proliferation; percent closure of the scratch compared to initial width ([2]; 6 hr exposure to peptide): 44%; percent closure of the scratch compared to initial width ([2]; 10 hr exposure to peptide): 67%; cell migration activity (in words) [2]: just as capable as HB-107 in inducing cell migration; also recorded: capable of increasing the migration of cells in a manner similar to that of the parent HB-107 peptide; cell migration activity (in words) ([2]; listed as SEQ ID NO:3): can induce cell proliferation and migration
9 | MPKEKVFLKIEKMG (listed as Hyalophora cecropia) [HB-912, fragment of HB-107] | 100 | 84 | 125 | 137 | can induce cell proliferation | –
10 | VFLKIEK (listed as Hyalophora cecropia) [HB-1074, fragment of HB-107] | 97 | 93 | 120 | 149 | can induce cell proliferation | –
11 | VFLKIEKMG (listed as Hyalophora cecropia) [HB-1071, fragment of HB-107] | 106 | 127 | 188 | 155 | – | cell proliferation activity (in words) ([1]; listed as 5): strongest proliferative activity; cell proliferation activity (in words) ([1]; listed as SEQ ID NO:5): can induce cell proliferation
